Source: patent EP1935986B1, “Luminogenic and fluorogenic compounds and methods to detect molecules or conditions” (priority 2005, dated 2006)
Where “and” joins values, the source holds several entries; their conditions need not be identical. Equal entries are not always repeated.

What was measured:
CYP3A5 = CYP3A5 (Homo sapiens, UniProt P20815); assay: Two-step luminescent P450 screen of luciferin derivatives; settings: result in words
[1] = tested on: equine alcohol dehydrogenase; assay: Effect of inhibitors on the conversion of luciferol by equine alcohol dehydrogenase; assay type: biochemical; settings: luciferol + equine ADH + NAD+ with 10 µl inhibitor solution, 37°C, 30 minutes; duplicate reactions #1, #2 (controls 1023, 1087)
Procedure: Trichloroethanol solution: A 0.48 ml sample of 2,2,2, trichloroethanol (Aldrich T5480-5) was dissolved in water.
Duplicate reactions were assembled (see Table 19).
Reactions were initiated by addition of 1.5 µl of luciferol solution. Upon addition of the luciferol solution, the reactions were mixed and placed at 37°C.

CYP3A4 = CYP3A4 (Homo sapiens, UniProt P08684)
CYP3A7 = CYP3A7 (Homo sapiens, UniProt P24462)
equine GST = assay: Two-step bioluminogenic GST assay with luciferin derivative; assay type: biochemical; settings: versus GST M1-1 and GST A1-1; result in words
Procedure: The derivative was tested in a two step format. […] At different times after the reaction was initiated, a portion was removed and mixed with a luciferase reaction mixture. Reactions in which light production increased over time indicate that GST#3 is a substrate for the GST in that reaction.
Equine GST Solution: 25 mg of equine GST (Part G 6511, Sigma Chemical Company, St. Louis, MO) was dissolved in 5 ml of 10 mM BisTris buffer, pH 6.6. […] […] Glutathione (reduced) (Part G 4251, Sigma Chemical Company) was dissolved in water to create a 100 mM solution. GST #3 was dissolved in acetonitrile to produce a 12 mM solution.

[2] = Non-enzymatic transformation of luciferin derivative by glutathione (no GST), luciferase read-out; assay type: biochemical; settings: time of mixing/20/40 minutes
Procedure: Buffer stock solutions (1 M) of BisTris at pH 6.5, HEPES, pH 7.0, 7.5 and 8.0 and Tricine pH 8.5 were prepared by dissolving solid reagent obtained from Sigma Chemical Corporation and adjusting the pH to the desired value.
The stock of S. japonica GST used in Example 1A was diluted to 1 mg/ml with 10 mM BisTris pH 6.5.
The reactions were initiated by addition of GST #3 and mixing. […]

QuantiLum Luciferase = molecular target: T1, QuantiLum Luciferase (Photinus pyralis, UniProt P08659); assay: Scaffolds: light emission of luciferin derivatives with QuantiLum luciferase alone, + Co A, + DTT, + Co A and DTT; assay type: biochemical, firefly
T1 construct: purchased Promega Corporation E170
T1 sequence (P08659 whole entry): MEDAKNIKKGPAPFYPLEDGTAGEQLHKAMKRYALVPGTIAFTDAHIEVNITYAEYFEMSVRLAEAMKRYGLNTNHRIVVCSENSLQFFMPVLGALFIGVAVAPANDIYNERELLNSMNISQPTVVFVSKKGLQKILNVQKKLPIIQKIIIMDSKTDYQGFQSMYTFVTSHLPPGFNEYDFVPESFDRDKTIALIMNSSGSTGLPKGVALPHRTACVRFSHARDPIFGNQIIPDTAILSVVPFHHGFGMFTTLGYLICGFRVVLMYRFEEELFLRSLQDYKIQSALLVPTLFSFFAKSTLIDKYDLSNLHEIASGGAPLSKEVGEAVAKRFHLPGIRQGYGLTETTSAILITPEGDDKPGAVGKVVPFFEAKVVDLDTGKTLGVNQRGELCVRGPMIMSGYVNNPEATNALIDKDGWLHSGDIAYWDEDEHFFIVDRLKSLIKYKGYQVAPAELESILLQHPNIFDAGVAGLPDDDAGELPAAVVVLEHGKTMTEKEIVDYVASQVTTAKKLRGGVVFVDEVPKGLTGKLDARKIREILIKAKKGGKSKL

Sequence of CYP3A5 (P20815 whole entry): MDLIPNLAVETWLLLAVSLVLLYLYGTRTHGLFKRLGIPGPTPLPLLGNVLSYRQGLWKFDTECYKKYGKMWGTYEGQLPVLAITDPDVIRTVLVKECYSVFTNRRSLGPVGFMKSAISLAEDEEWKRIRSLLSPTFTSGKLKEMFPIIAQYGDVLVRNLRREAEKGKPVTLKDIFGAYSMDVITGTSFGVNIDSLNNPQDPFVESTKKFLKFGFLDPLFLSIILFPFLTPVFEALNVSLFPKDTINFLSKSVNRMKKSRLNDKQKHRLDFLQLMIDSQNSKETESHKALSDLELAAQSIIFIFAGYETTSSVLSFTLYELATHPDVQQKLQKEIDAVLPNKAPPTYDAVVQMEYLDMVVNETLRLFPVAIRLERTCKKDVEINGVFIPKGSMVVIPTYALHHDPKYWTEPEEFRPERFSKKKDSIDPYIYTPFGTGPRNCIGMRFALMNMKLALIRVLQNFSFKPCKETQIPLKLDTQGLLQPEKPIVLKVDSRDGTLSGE
Sequence of CYP3A7 (P24462 whole entry): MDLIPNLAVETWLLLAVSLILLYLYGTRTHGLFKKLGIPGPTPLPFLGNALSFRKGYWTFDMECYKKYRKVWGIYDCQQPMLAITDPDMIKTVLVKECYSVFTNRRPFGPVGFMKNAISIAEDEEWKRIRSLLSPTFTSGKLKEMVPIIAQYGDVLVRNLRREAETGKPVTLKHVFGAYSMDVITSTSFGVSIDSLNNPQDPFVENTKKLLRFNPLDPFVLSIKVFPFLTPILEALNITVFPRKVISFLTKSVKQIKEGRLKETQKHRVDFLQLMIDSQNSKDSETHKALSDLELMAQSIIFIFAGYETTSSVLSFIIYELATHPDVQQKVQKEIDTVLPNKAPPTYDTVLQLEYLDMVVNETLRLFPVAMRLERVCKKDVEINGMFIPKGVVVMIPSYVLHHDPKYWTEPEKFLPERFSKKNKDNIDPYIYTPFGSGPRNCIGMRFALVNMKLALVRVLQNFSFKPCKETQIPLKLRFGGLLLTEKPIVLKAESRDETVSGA
Sequence of CYP3A4 (P08684 2-503 limits assumed): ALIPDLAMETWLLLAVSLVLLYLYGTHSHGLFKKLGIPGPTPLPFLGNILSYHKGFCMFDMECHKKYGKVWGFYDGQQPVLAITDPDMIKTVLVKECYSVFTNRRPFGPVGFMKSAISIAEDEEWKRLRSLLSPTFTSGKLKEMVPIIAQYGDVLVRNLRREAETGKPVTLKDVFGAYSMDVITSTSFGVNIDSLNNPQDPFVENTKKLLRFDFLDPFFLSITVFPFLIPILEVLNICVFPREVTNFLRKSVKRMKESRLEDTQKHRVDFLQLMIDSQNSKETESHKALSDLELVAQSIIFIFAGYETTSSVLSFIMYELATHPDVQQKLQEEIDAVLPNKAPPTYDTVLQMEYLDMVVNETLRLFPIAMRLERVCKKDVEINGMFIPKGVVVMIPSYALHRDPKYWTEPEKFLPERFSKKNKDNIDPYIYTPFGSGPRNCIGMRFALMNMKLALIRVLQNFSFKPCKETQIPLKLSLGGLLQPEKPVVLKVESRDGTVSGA

In the case of `O=C(O)[C@H]1CSC(c2nc3ccc(OCc4ccc(C(F)(F)F)cc4)cc3s2)=N1` [Luciferin-6-trifluoromethylbenzylether], the “P450 activity / selectivity with the derivative as substrate” value (shortened to “P450 activity / selectivity”) (CYP3A5) is reported as “enhanced selectivity”.
For `OCC(Cl)(Cl)Cl` [trichloroethanol, 2,2,2, trichloroethanol], the “Relative Light Units” value [1] was 524.8 and 342.1.
With quinolylluciferin 6-benzyl ether the “P450 activity / selectivity” value (CYP3A4) was “to a lesser degree a substrate” and the “P450 activity / selectivity” value (CYP3A7) was “preferred substrate”.
For `O=C(O)[C@H]1CSC(c2ccc3cc(Oc4ccc(C(F)(F)F)cc4[N+](=O)[O-])ccc3n2)=N1` [GST #3, 6-(2-nitro-4-trifluoromethyl-phenoxy)quinolinyl-luciferin], the “substrate preference among GSTs in a light generating reaction” value (equine GST) was “better substrate for equine GST”, the “Light Output” value ([2]; Table 4 reaction 2: BisTris pH 6.5, 5 µl 100 mM glutathione, no GST, 20 minutes post mixing) was 1.287 and the “Light Output” value ([2]; Table 4 reaction 2: BisTris pH 6.5, 5 µl 100 mM glutathione, no GST, 40 minutes post mixing) was 1.761. The “Light Output” value ([2]; Table 4 reaction 2: BisTris pH 6.5, 5 µl 100 mM glutathione, no GST, at time of mixing) was 1.13, the “Light Output” value ([2]; Table 4 reaction 4: HEPES pH 7.0, glutathione, 20 minutes post mixing) was 1.178 and the “Light Output” value ([2]; Table 4 reaction 4: HEPES pH 7.0, glutathione, 40 minutes post mixing) was 2.2. The “Light Output” value ([2]; Table 4 reaction 4: HEPES pH 7.0, glutathione, at time of mixing) was 1.156, the light emission values (QuantiLum Luciferase; Derivative Conc. 1.07, Alone) was 3232 and the light emission values (QuantiLum Luciferase; Derivative Conc. 1.07, Co A) was 3081. It also gave a light emission values (QuantiLum Luciferase; Derivative Conc. 1.07, Co A + DTT) of 6964, a light emission values (QuantiLum Luciferase; Derivative Conc. 1.07, DTT) of 5953 and a light emission values (QuantiLum Luciferase; Derivative Conc. 3.13, Alone) of 4913. It also gave a light emission values (QuantiLum Luciferase; Derivative Conc. 3.13, Co A) of 4832, a light emission values (QuantiLum Luciferase; Derivative Conc. 3.13, Co A + DTT) of 8826 and a light emission values (QuantiLum Luciferase; Derivative Conc. 3.13, DTT) of 9106. It also gave a light emission values (QuantiLum Luciferase; Derivative Conc. 6.25, Alone) of 7682, a light emission values (QuantiLum Luciferase; Derivative Conc. 6.25, Co A) of 7149 and a light emission values (QuantiLum Luciferase; Derivative Conc. 6.25, Co A + DTT) of 10423. It also gave a light emission values (QuantiLum Luciferase; Derivative Conc. 6.25, DTT) of 11164, a light emission values (QuantiLum Luciferase; Derivative Conc. 12.5, Alone) of 11752 and a light emission values (QuantiLum Luciferase; Derivative Conc. 12.5, Co A) of 10674. It also gave a light emission values (QuantiLum Luciferase; Derivative Conc. 12.5, Co A + DTT) of 14298, a light emission values (QuantiLum Luciferase; Derivative Conc. 12.5, DTT) of 16587 and a light emission values (QuantiLum Luciferase; Derivative Conc. 25, Alone) of 15957. The light emission values (QuantiLum Luciferase; Derivative Conc. 25, Co A) was 14791, the light emission values (QuantiLum Luciferase; Derivative Conc. 25, Co A + DTT) was 18145 and the light emission values (QuantiLum Luciferase; Derivative Conc. 25, DTT) was 21256. The light emission values (QuantiLum Luciferase; Derivative Conc. 50, Alone) was 17409, the light emission values (QuantiLum Luciferase; Derivative Conc. 50, Co A) was 15440 and the light emission values (QuantiLum Luciferase; Derivative Conc. 50, Co A + DTT) was 20009. It also gave a light emission values (QuantiLum Luciferase; Derivative Conc. 50, DTT) of 22888, a light emission values (QuantiLum Luciferase; Derivative Conc. 100, Alone) of 16388 and a light emission values (QuantiLum Luciferase; Derivative Conc. 100, Co A) of 18343. It also gave a light emission values (QuantiLum Luciferase; Derivative Conc. 100, Co A + DTT) of 19129 and a light emission values (QuantiLum Luciferase; Derivative Conc. 100, DTT) of 21472.
